# Data taken from paper PMC10289985, “Brigatinib pharmacokinetics in patients with chronic hepatic impairment” (Investigational New Drugs, 2023).
# Assays:
# [1] = system: TKI-naive ALK+ NSCLC; set-up: method as in PMID 34537440; settings: 95% CI 0.35–0.66; P < 0.0001; cited from earlier work
# [2] = system: cytochrome P450 (CYP) 2C8 and CYP3A4; set-up: method as in ref 13 = [13]; 13. Alunbrig [package insert] (2022) Takeda Pharmaceuticals America, Inc., Lexington, MA; settings: in vitro; cited from earlier work
# [3] = set-up: method as in PMID 30570839; settings: versus fasted conditions; healthy participants; cited from earlier work
# [4] = set-up: method as in PMID 27836716, PMID 29915924; settings: cited from earlier work
# [5] = Safety and adverse event monitoring after a single 90-mg dose; type: in vivo, human
# Method: All enrolled participants who received brigatinib were included in the safety population. Adverse event (AE) monitoring occurred throughout the study. Physical examination was conducted at screening with additional symptom-directed physical examinations performed at the investigator’s discretion on study Days −1 and 9. Height, weight, and BMI were recorded at screening. Vital signs were recorded at screening; on Day −1; predose and at 0.5, 1, 2, 3, 4, 6, 8, 12, 24, 36, 48, 72, 96, 120, 144, and 168 hours postdose; and on Day 9. Electrocardiograms were conducted at screening, on Day −1, predose and at 3 and 48 hours postdose, and on Day 9. Clinical laboratory evaluations were performed at screening and on Days −1 and 9 and were reviewed by the investigator for clinical significance.
smiles,measurement,setting,value
COc1cc(N2CCC(N3CCN(C)CC3)CC2)ccc1Nc1ncc(Cl)c(Nc2ccccc2P(C)(C)=O)n1 [brigatinib],"PFS hazard ratio, brigatinib compared with crizotinib",[1],0.48
same,metabolizing enzymes,[2],primarily metabolized by cytochrome P450 (CYP) 2C8 and CYP3A4
same,"effect of a high-fat, high-calorie meal on total systemic exposure (AUC)",[3],no clinically meaningful effect
same,mean plasma terminal elimination half-life,[4],approximately 25 hours
same,number of TEAEs,[5]; Child-Pugh A group,2 events
same,participants with one or more TEAEs,[5]; Child-Pugh A group (n=6),2 participants
same,number of TEAEs,[5]; Child-Pugh B group,13 events
same,participants with moderate TEAEs possibly related to the study drug,[5]; Child-Pugh B group,Two
same,participants with one or more TEAEs,[5]; Child-Pugh B group (n=6),4 participants
same,number of TEAEs,[5]; Child-Pugh C group,2 events
same,participants with one or more TEAEs,[5]; Child-Pugh C group (n=6),2 participants
same,participants with one or more treatment-emergent adverse events (TEAEs),"[5]; all 27 study participants, single 90 mg",13 participants
same,participants with constipation,[5]; all participants,2 participants
same,participants with dyspnea,[5]; all participants,2 participants
same,participants with headache,[5]; all participants,4 participants
same,participants with hypertension,[5]; all participants,2 participants
same,participants with nausea,[5]; all participants,2 participants
same,changes in laboratory values or electrocardiogram measurements,[5]; during the study,No clinically significant changes
same,discontinuation due to an AE,[5]; during the study,no participants discontinued
same,serious AEs,[5]; during the study,no serious AEs
same,number of TEAEs,[5]; healthy participant group,5 events
same,participants with one or more TEAEs,[5]; healthy participant group (n=9),5 participants
same,tolerability,"[5]; single 90-mg dose, healthy participants and participants with hepatic impairment",well tolerated
